The nature of this assay: Oxidative induction time (OIT) by DSC, compound mixed with polyisoprene. The conditions noted are these: 0.5 wt % compound mixed with polyisoprene, isothermal 160 °C in O2, DSC; blank 1-2 minutes. How it is done:
OIT is measured according to a procedure carried out in a differential scanning calorimeter (TA Instruments, Q200), also knows as DSC, and is used to predict thermo-oxidative performance of a material. In this procedure, each sample is held in a sample cell and heated under a nitrogen atmosphere to a preselected temperature.
0.5 wt % of a Compound of the Disclosure, or no antidegradant (blank) was mixed with polyisoprene and heated isothermally at 160° C. in O2.
(Differential scanning calorimetry records heat flow against a reference as temperature is scanned.)

As for `Cc1cc(Cc2cc(C)c(NC(C)C)c(C)c2)cc(C)c1NC(C)C` [Compound 154-A, 4,4′-methylenebis(N-isopropyl-2,6-dimethylaniline)], the “Peak time of OIT testing” value came out at 1.5 min.
Take `CCOC(=O)C1=CC(C)(C(=O)OCC)Nc2c(C)cc(Nc3ccccc3)cc21` (stereo not shown) [Compound 120-B, diethyl 2,8-dimethyl-6-(phenylamino)-1,2-dihydroquinoline-2,4-dicarboxylate]: the “Peak time of OIT testing” value was 11.5 min.
Take `c1coc(CNc2ccc(Cc3ccc(NCc4ccco4)cc3)cc2)c1` [Compound 8-A, 4,4′-methylenebis(N-(furan-2-ylmethyl)aniline)]: the “Peak time of OIT testing” value came to 2.9 min.
On to `CC(C)Nc1ccc(C(c2ccccc2)c2ccc(NC(C)C)cc2)cc1` [Compound 16-A, 4,4′-(phenylmethylene)bis(N-isopropylaniline)], for which the “Peak time of OIT testing” value was found to be 6.6 min.
In the case of `CCC(CC)Nc1cc(C)c2c(c1)C(C)(c1ccccc1)CCN2` (stereo not shown) [Compound 2-F, 4,8-dimethyl-N-(pentan-3-yl)-4-phenyl-1,2,3,4-tetrahydroquinolin-6-amine], the “Peak time of OIT testing” value came out at 17.4 min.
For `Cc1cc(Nc2ccccc2)cc2c1NC(C)(C)CC2C` (stereo not shown) [Compound 2-B, 2,2,4,8-tetramethyl-N-phenyl-1,2,3,4-tetrahydroquinolin-6-amine] the value was 17.8 min.
Turning to `CC(C)Nc1ccc(Cc2ccc(NC(C)C)cc2)cc1` [Compound 19-A, 4,4′-methylenebis(N-isopropylaniline)], the “Peak time of OIT testing” value was 2.7 min.
On to `CC1=CC(C)(C)Nc2cc3c(cc21)NC(C)(C)C=C3C` [Compound 32-H, 2,2,4,7,7,9-hexamethyl-1,2,6,7-tetrahydropyrido[2,3-g]quinoline], for which the “Peak time of OIT testing” value was 6.6 min.
As for `Cc1cc(NC(C)C)cc2c1NC(c1ccccc1)CC2(C)c1ccccc1` (stereo not shown) [Compound 3-F, N-isopropyl-4,8-dimethyl-2,4-diphenyl-1,2,3,4-tetrahydroquinolin-6-amine], the “Peak time of OIT testing” value came out at 43.8 min.
For the compound `CC(Nc1ccc2[nH]ccc2c1)c1ccccc1` (stereo not shown) [Compound 19-C, N-(1-phenylethyl)-1H-indol-5-amine], the “Peak time of OIT testing” value was determined as 6.9 min.
In the case of `CC(C)Nc1ccc(Sc2ccc(NC(C)C)cc2)cc1` [Compound 11-A], the “Peak time of OIT testing” value turned out to be 2.5 min.
For `c1coc(CNc2ccc(C(c3ccc(NCc4ccco4)cc3)c3ccco3)cc2)c1` [Compound 7-A, 4,4′-(furan-2-ylmethylene)bis(N-(furan-2-ylmethyl)aniline)] the value was 4.1 min; for `CCOC(=O)C1=CC(C)(C(=O)OCC)Nc2ccc(Nc3ccccc3)cc21` (stereo not shown) [Compound 3-H, diethyl 2-methyl-6-(phenylamino)-1,2-dihydroquinoline-2,4-dicarboxylate], 12.9 min.
In the case of `CC(Nc1ccc(Cc2ccc(NC(C)c3ccco3)cc2)cc1)c1ccco1` (stereo not shown) [Compound 20-A, 4,4′-methylenebis(N-(1-(furan-2-yl)ethyl)aniline)], the “Peak time of OIT testing” value was found to be 2.3 min.
`CC1=CC(C)(C)Nc2ccc(Sc3ccc4c(c3)C(C)=CC(C)(C)N4)cc21` [Compound 153-A, bis(2,2,4-trimethyl-1,2-dihydroquinolin-6-yl)sulfane]: the “Peak time of OIT testing” value stood at 5.8 min.
Take `CC(C)Nc1ccc(Oc2ccc(NC(C)C)cc2)cc1` [Compound 27-A]: the “Peak time of OIT testing” value was determined as 4.2 min.
On to `CCC(C)Nc1ccc2c(c1)CCN2` (stereo not shown) [Compound 2-C, N-(sec-butyl) indolin-5-amine], for which the “Peak time of OIT testing” value was found to be 14.1 min.
Take `Cc1cc(NC(C)C)cc2c1NC(C(C)C)CC2(C)c1ccccc1` (stereo not shown) [Compound 4-F, N,2-diisopropyl-4,8-dimethyl-4-phenyl-1,2,3,4-tetrahydroquinolin-6-amine]: the “Peak time of OIT testing” value came to 19.6 min.
For the compound `COC1=CC(=Nc2ccccc2)C=C2C(C)=CC(C)(C)N=C12` [Compound 7-D, 8-methoxy-2,2,4-trimethyl-N-phenylquinolin-6(2H)-imine], the “Peak time of OIT testing” value was 24.6 min.
As for `Cc1cc(NC(C)C)cc2c1NCCC2(C)c1ccccc1` (stereo not shown) [Compound 1-F, N-isopropyl-4,8-dimethyl-4-phenyl-1,2,3,4-tetrahydroquinolin-6-amine], the figure is 20.3 min.
For `COc1cc(Nc2ccccc2)cc2c1NC(C)(C)C=C2C` [Compound 7-B, 8-methoxy-2,2,4-trimethyl-N-phenyl-1,2-dihydroquinolin-6-amine], the “Peak time of OIT testing” value was 31.0 min.
On to `CC1CC(C)(C)Nc2ccc(Cc3ccc4c(c3)C(C)CC(C)(C)N4)cc21` (stereo not shown) [Compound 2-A, bis(2,2,4-trimethyl-1,2,3,4-tetrahydroquinolin-6-yl) methane], for which the “Peak time of OIT testing” value came to 10.8 min.
`CCC(C)Nc1ccc2[nH]ccc2c1` (stereo not shown) [Compound 1-C, N-(sec-butyl)-1H-indol-5-amine]: the “Peak time of OIT testing” value was 19.2 min.
For `CC1=CC(C)(C)Nc2ccc(NCc3ccco3)cc21` [Compound 1-H, N-(furan-2-ylmethyl)-2,2,4-trimethyl-1,2-dihydroquinolin-6-amine] the value was 10.7 min.
As for `CC1=CC(C)(C)Nc2ccc(Cc3ccc4c(c3)C(C)=CC(C)(C)N4)cc21` [Compound 1-A, bis(2,2,4-trimethyl-1,2-dihydroquinolin-6-yl) methane], the “Peak time of OIT testing” value was determined as 4.8 min.
`CC(C)CCC(C)Nc1ccc(NC(C)CCC(C)C)nc1` (stereo not shown) [Compound 1-E, N^2,N^5-bis(5-methylhexan-2-yl)pyridine-2,5-diamine]: the “Peak time of OIT testing” value was found to be 11.1 min.
For the compound `Cc1c(NC(C)C)ccc2c1NCCC2(C)c1ccccc1` (stereo not shown) [Compound 2-J, N-isopropyl-4,8-dimethyl-4-phenyl-1,2,3,4-tetrahydroquinolin-7-amine], the “Peak time of OIT testing” value is 15.6 min.
Turning to `Cc1cc(NC(C)C)cc2c1NCC(C)(C)C2` [Compound 47-F, N-isopropyl-3,3,8-trimethyl-1,2,3,4-tetrahydroquinolin-6-amine], the “Peak time of OIT testing” value was found to be 3.2 min.
Consider `CC1=CC(C)(C)Nc2c(C)cc(Nc3ccccc3)cc21` [Compound 1-B, 2,2,4,8-tetramethyl-N-phenyl-1,2-dihydroquinolin-6-amine], for which the “Peak time of OIT testing” value was 15.2 min.
For `Cc1cc(NC(C)c2ccccc2)cc2c1NC(C)(C)CC2` (stereo not shown) [Compound 119-B, 2,2,8-trimethyl-N-(1-phenylethyl)-1,2,3,4-tetrahydroquinolin-6-amine] the value was 21.9 min; for `CC1CC(C)(C)Nc2cc3c(cc21)NC(C)(C)CC3C` (stereo not shown) [Compound 33-H, 2,2,4,7,7,9-hexamethyl-1,2,3,4,6,7,8,9-octahydropyrido[2,3-g]quinoline], 8.3 min; for `CC1=CC(C)(C)Nc2c1ccc(NC(C)CC(C)C)c2C` (stereo not shown) [Compound 1-J, 2,2,4,8-tetramethyl-N-(4-methylpentan-2-yl)-1,2-dihydroquinolin-7-amine], 2.6 min.
`CC(C)Nc1ccc(C(c2ccc(NC(C)C)cc2)c2ccco2)cc1` [Compound 3-A, 4,4′-(furan-2-ylmethylene)bis(N-isopropylaniline)]: the “Peak time of OIT testing” value is 5.9 min.
For the compound `CC(Nc1ccc(Cc2ccc(NC(C)c3ccccc3)cc2)cc1)c1ccccc1` (stereo not shown) [Compound 21-A, 4,4′-methylenebis(N-(1-phenylethyl)aniline)], the “Peak time of OIT testing” value came out at 2.6 min.

The values are drawn from patent US20260209483A1, “RUBBER COMPOSITIONS COMPRISING ANTIDEGRADANTS” (FLEXSYS AMERICA L.P., priority 2022, published 2026).
